Among the data in publication PMC6934184, “Selective DNA-PKcs inhibition extends the therapeutic index of localized radiotherapy and chemotherapy” (The Journal of Clinical Investigation, 2019) are inhibition values, retold here.

Broadly, the inhibition is the drop in the measured response relative to a control, in per cent.

The test addresses T1, STK3 (MST2) (Homo sapiens, UniProt Q13188).
T1 construct: purchased Thermo Fisher Scientific (Life Technologies) SelectScreen
Briefly: SelectScreen Z'LYTE. Format: biochemical. An outline of the steps:
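SelectScreen broad panel; activity (Z'LYTE, Adapta) plus binding formats. ATP: Km app for CSF1R Z'LYTE; 10 for CAMK1 Adapta. Readout = % per kinase.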

T1 sequence (Q13188 whole entry): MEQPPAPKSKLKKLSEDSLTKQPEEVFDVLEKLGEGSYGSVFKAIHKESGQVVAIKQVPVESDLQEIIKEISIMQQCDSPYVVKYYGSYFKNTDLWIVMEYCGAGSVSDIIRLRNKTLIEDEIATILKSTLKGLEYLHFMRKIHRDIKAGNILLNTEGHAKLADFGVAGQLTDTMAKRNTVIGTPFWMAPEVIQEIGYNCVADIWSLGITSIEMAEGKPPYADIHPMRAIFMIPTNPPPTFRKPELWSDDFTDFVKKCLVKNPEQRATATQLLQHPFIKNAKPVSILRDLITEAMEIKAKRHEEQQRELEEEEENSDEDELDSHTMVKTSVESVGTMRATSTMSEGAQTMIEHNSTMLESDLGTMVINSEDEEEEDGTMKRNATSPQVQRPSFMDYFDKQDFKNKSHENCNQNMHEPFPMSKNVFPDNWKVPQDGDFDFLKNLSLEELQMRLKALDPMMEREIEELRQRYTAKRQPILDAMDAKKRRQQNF

On to `CN(C(=O)CN1CCOCC1)c1ccc2sc3c(-c4cccc5c(=O)cc(N6CC7CCC(C6)O7)oc45)cccc3c2c1` [NU5455], for which the inhibition at 1 µM was -10.3%.
